The record followed here is paper PMC9289880 (Journal of Medicinal Chemistry, 2022).

Molecules are shown by their SMILES. Where a SMILES comes first, the peptide text is derived from it. Bridges are numbered along the chain shown (N, C = ends). [ ]: non-standard residue; d: D form. Pro(trans-3-OAllyl) = C=CCO[C@H]1CCN[C@@H]1C(=O)O; Pro(3R-Ph) = O=C(O)[C@H]1NCC[C@@H]1c1ccccc1; Bip = N[C@@H](Cc1ccc(-c2ccccc2)cc1)C(=O)O; Ala(cPent) = N[C@@H](CC1CCCC1)C(=O)O

This assay addresses KRAS^G12D (Homo sapiens, UniProt P01116, G12D). The assay can be described thus: SOS-catalyzed guanine nucleotide exchange. It counts as biochemical.

Sequence of KRAS^G12D (P01116 1-188 isoform P01116-2 G12D): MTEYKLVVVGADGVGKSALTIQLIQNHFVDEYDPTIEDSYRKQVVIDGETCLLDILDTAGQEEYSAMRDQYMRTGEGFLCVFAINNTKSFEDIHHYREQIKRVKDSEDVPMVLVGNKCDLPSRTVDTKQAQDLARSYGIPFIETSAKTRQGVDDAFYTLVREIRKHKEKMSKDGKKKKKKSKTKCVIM

As usually defined, the IC50 is the concentration that gives 50% inhibition. Read a high IC50 as lower potency. The compound `CC(=O)N[C@@H](CCCNC(=N)N)C(=O)N[C@@H](CCCNC(=N)N)C(=O)N[C@H]1CSSC[C@@H](C(=O)N[C@@H](CCCNC(=N)N)C(=O)N[C@@H](CCCNC(=N)N)C(N)=O)NC(=O)[C@H](C(C)C)NC(=O)[C@@H]2CCCN2C(=O)[C@H](CC(=O)O)NC(=O)[C@H](Cc2ccc(O)cc2)NC(=O)[C@H](CO)NC(=O)[C@H](CC2CCCC2)NC(=O)[C@H](Cc2ccc(-c3ccccc3)cc2)NC(=O)[C@H](CC(C)C)NC(=O)[C@@H]2CCCN2C1=O` [1-11, Ac-RR-cyclo(CPL-Bip-cPeA-SYDPVC)-RR-NH2] (Ac-RRCPL[Bip][Ala(cPent)]SYDPVCRR-NH2; disulfide 3-13) came in with an IC50 of more than 11100 nM.
The same measure, in the same setting: as for `CC[C@H](C)[C@@H]1NC(=O)[C@H](Cc2ccc(-c3ccccc3)cc2)NC(=O)[C@H](COC)NC(=O)[C@@H]2CCCN2C(=O)[C@@H](NC(=O)[C@H](CCCNC(=N)N)NC(=O)[C@H](CCCNC(=N)N)NC(C)=O)CSSC[C@@H](C(=O)N[C@@H](CCCNC(=N)N)C(=O)N[C@@H](CCCNC(=N)N)C(N)=O)NC(=O)[C@H](C(C)C)NC(=O)[C@@H]2CCCN2C(=O)[C@H](CC(=O)O)NC(=O)[C@H](Cc2ccc(O)cc2)NC(=O)[C@H](CO)NC1=O` [3-02, Ac-RR-cyclo(CP-SerOMe-Bip-ISYDPVC)-RR-NH2] (Ac-RRCPS(Me)[Bip]ISYDPVCRR-NH2; disulfide 3-13), the figure is 1130 nM.
For the compound `C=CCO[C@H]1CCN2C(=O)[C@@H](NC(=O)[C@H](CCCNC(=N)N)NC(=O)[C@H](CCCNC(=N)N)NC(C)=O)CSSC[C@@H](C(=O)N[C@@H](CCCNC(=N)N)C(=O)N[C@@H](CCCNC(=N)N)C(N)=O)NC(=O)[C@H](C(C)C)NC(=O)[C@@H]3CCCN3C(=O)[C@H](CC(=O)O)NC(=O)[C@H](Cc3ccc(O)cc3)NC(=O)[C@H](CO)NC(=O)[C@H]([C@@H](C)CC)NC(=O)[C@H](Cc3ccc(-c4ccccc4)cc3)NC(=O)[C@H](CC(C)C)NC(=O)[C@H]12` [3-05, Ac-RR-cyclo(C-Prot3OAl-L-Bip-ISYDPVC)-RR-NH2] (Ac-RRC[Pro(trans-3-OAllyl)]L[Bip]ISYDPVCRR-NH2; disulfide 3-13), inhibition was half-maximal at 1 nM (IC50) and the “fold improvement in SOS potency over reference peptide 1-09” value turned out to be 7 fold.
For `CC[C@H](C)[C@@H]1NC(=O)[C@H](Cc2ccc(-c3ccccc3)cc2)NC(=O)[C@H](CC(C)C)NC(=O)[C@@H]2CCCN2C(=O)[C@@H](NC(=O)[C@H](CCCNC(=N)N)NC(=O)[C@H](CCCNC(=N)N)NC(C)=O)CSSC[C@@H](C(=O)N[C@@H](CCCNC(=N)N)C(=O)N[C@@H](CCCNC(=N)N)C(N)=O)NC(=O)[C@H](C(C)C)NC(=O)[C@@H]2CCCN2C(=O)[C@H](CC(=O)O)NC(=O)[C@H](Cc2ccc(O)cc2)NC(=O)[C@H](CO)NC1=O` [peptide 1-09, Ac-RR-cyclo(CPL-Bip-ISYDPVC)-RR-NH2] (Ac-RRCPL[Bip]ISYDPVCRR-NH2; disulfide 3-13), the “fold improvement in SOS potency over reference 2 (KRpep-2)” value turned out to be 8 fold.
Regarding `CC[C@H](C)[C@@H]1NC(=O)[C@H](Cc2ccc(-c3ccccc3)cc2)NC(=O)[C@H](CC(C)C)NC(=O)[C@@H]2[C@@H](c3ccccc3)CCN2C(=O)[C@@H](NC(=O)[C@H](CCCNC(=N)N)NC(=O)[C@H](CCCNC(=N)N)NC(C)=O)CSSC[C@@H](C(=O)N[C@@H](CCCNC(=N)N)C(=O)N[C@@H](CCCNC(=N)N)C(N)=O)NC(=O)[C@H](C(C)C)NC(=O)[C@@H]2CCCN2C(=O)[C@H](CC(=O)O)NC(=O)[C@H](Cc2ccc(O)cc2)NC(=O)[C@H](CO)NC1=O` [peptide 3-09, Ac-RR-cyclo(C-Prot3Ph-L-Bip-ISYDPVC)-RR-NH2] (Ac-RRC[Pro(3R-Ph)]L[Bip]ISYDPVCRR-NH2; disulfide 3-13), the “fold improvement in SOS potency over reference peptide 1-09” value came out at 7 fold.
